Assay results published in US9889120B2, “Combination drug therapies for cancer and methods of making and using them” (Vicus Therapeutics, LLC, priority 2016, dated 2018).

Legend:
[1] = system: advanced HCC; assay: Randomized investigator initiated trial: sorafenib alone (Group S) vs sorafenib after one week of propranolol and etodolac (Group SPE) (Example 2); type: in vivo, human
Experimental: Data on the use of the combination in advanced hepatocellular carcinoma patients are lacking.
Patients with advanced HCC were eligible for this randomized investigator initiated trial. Patients received propranolol (P) and etodolac (E) (or “PE”) daily for one week prior to starting sorafenib (S). PE was administered to maximize the therapeutic benefit and minimize side effects. The primary endpoint was survival.
Twenty-four patients were randomized to either sorafenib alone (Group S) or sorafenib after one week of propranolol and etodolac (Group SPE). Population: median age, 54.6 years; 74% male; BMI, 23.0; C-reactive protein (CRP), 69.3; cirrhosis (8.8%), fibrosis (50%), hepatitis B positive (85%). The patient population is summarized:
The study design is schematically illustrated in FIG. 6. Patients received PE daily for one week prior to starting S.
Dosing for PE was as follows: • 8 AM 20 mg propranolol+300 mg etodolac • 3 PM 20 mg propranolol • 8 PM 300 mg etodolac

[2] = system: advanced HCC; assay: Phase II multi-center, randomized, double-blind, placebo-controlled study of VT-122 or placebo on a background of stable-dose sorafenib (Example 1); type: in vivo, human; conditions: advanced HCC patients
Experimental: This was a multi-center, randomized, double-blind, double-dummy, placebo-controlled study.
VT-122 (Vicus Therapeutics, Morristown N.J.): patients entered a three week dose escalation period, with propranolol maximum at 120 mg, and etodolac maximum at 600 mg. VT-122 was administered in split doses in the morning and evening.
After the three week dose escalation period, patients were to continue therapy for four four-week cycles.
Secondary endpoint=lean body mass, overall survival, muscle function, symptom assessment.

SMILES: CNC(=O)c1cc(Oc2ccc(NC(=O)Nc3ccc(Cl)c(C(F)(F)F)c3)cc2)ccn1 [Sorafenib, 4-[4-[[4-chloro-3-(trifluoromethyl)phenyl]carbamoylamino]phenoxy]-N-methyl-pyridine-2-carboxamide]
- percent of patients with loss in weight ([1]; FIG. 8): 50%
- 12 Month Survival, Percent ([1]; N=12 per group, table): 25.0%
- Hand foot skin reaction (HFS) grade 2 or 3, percent of patients ([1]; advanced HCC patients): 67%
- Median survival ([1]; advanced HCC patients): 10 months
- Twelve month survival ([1]; advanced HCC patients, 12 per group): 25.0%
- 12 Month Survival, Alive ([1]; number of patients alive of N=12): 3
- Kaplan-Meier median survival (95% CI), days [2]: 267 (32, NR) days
